Key:
[1] = in vivo
Procedure: The Lumbar spine bone mineral density and occurrence of bone fractures were checked as bone assessments. For the Lumbar spine bone mineral density, the bone density of the second to fourth lumbar spine was measured at the start and every six months thereafter using dual-energy x-ray absorptiometry (DXA). For the frequency of bone fractures, x-rays were taken from the front and side of the fourth thoracic to the fifth lumbar spine at the start and every six months thereafter, and new vertebral fractures were assessed by comparison of the roentgen films at the start and at each point in time thereafter using the method of Genant et al. (Non-patent Reference 14) as a reference. In locations other than the vertebrae, fractures were evaluated by checking by roentgen films. Blood samples were also taken from all patients at the beginning and during administration, and the general laboratory test values, including the calcium concentration, were measured. The administration period in high-risk patients (DXA and new vertebral fractures were assessed collectively at the center; fractures of other than vertebrae were assessed by the investigator based on the roentgen films) was 85.1±20.8 weeks in the 5 unit group and 83.7±19.8 weeks in the 100 unit group. […] The administration period in low-risk patients was 72.7±19.4 weeks in the 5 unit group and 88.3±21.3 weeks in the 100 unit group.

[2] = system: high-risk patients diagnosed with primary osteoporosis; assay: Working Example 2: bone density of lumbar spine and femur by DXA; format: in vivo, human; details: 200 units weekly; for Change in lumbar vertebral density (%), median: after 72 W
[3] = in vivo; remark: listed apart in the source
Procedure: The ratio of the urinary calcium value/urinary creatine value was compared before beginning administration and in the weeks of observation. The urinary calcium was measured at the start, after 12 weeks, after 24 weeks, after 48 weeks, and after 72 weeks.

[4] = system: high-risk patients diagnosed with primary osteoporosis; assay: Working Example 2: new (incl. multiple, new+worsening) vertebral fractures by x-ray, test drug 200 units once a week for 72 weeks vs placebo; format: in vivo, human
Source text: The above patients also took two tablets of a calcium agent once a day after dinner. […] The preparation contained precipitated calcium carbonate, magnesium carbonate, cholecalciferol (vitamin D3), and the like as components and is marketed under the trade name New Calcichew (trademark) D3″ (sold by: Daiichi Sankyo Health Care, manufactured and sold by: Nitto Pharmaceutical Industries, Ltd.).
(§1) The incidence of bone fractures was checked by frontal and lateral x-rays of the fourth thoracic to the fourth lumbar spine taken at the start and every 24 weeks thereafter.
Here, “multiple vertebral fractures” was defined as two or more new vertebral fractures. When the incidence of multiple vertebral fractures (number of cases) was compared in the test drug group (n=261) and control group (n=281) after 72 weeks of administration, it was 2.1% (6 cases) in the control group and 0.8% (2 cases) in the test drug group.

[5] = system: high-risk patients diagnosed with primary osteoporosis; assay: Working Example 2: worsening vertebral fractures; format: in vivo, human; details: 200 units weekly, FAS
Source text: The vertebral fractures in the present invention also include both new fractures and worsening fractures. […] New and worsening [fractures] can be classified by the grade increase pattern according to the criteria of Genant. Concretely speaking, a fracture is diagnosed as a new fracture when a change is found from grade 0 to grade 1, 2, or 3. It can be regarded as a worsening fracture when a change is found from grade 1 to grade 2 or 3 or from grade 2 to grade 3. The vertebral height was measured according to the method of Inoue et al. (Non-patent reference 35) and the method of Hayashi et al. (Non-patent Reference 36) to accurately assess the changes in grade.
as §1
The efficacy of the test drug on worsening bone fractures was studied.

[6] = 200 units weekly, 72 weeks, No. of fractures: five or more
[7] = 200 units weekly, 72 weeks, No. of fractures: four
[8] = 200 units weekly, 72 weeks, No. of fractures: none
[9] = 200 units weekly, 72 weeks, No. of fractures: one
[10] = 200 units weekly, 72 weeks, No. of fractures: three
[11] = 200 units weekly, 72 weeks, No. of fractures: two
[12] = 200 units weekly, after 72 weeks, n=261
[13] = 200 units weekly, history of Alfacalcidol
[14] = 200 units weekly, history of calcitriol
[15] = 200 units weekly, history of calcium L-aspartate
[16] = 200 units weekly, history of calcium lactate
[17] = 200 units weekly, history of elcatonin
[18] = 200 units weekly, history of menatetrenone
[19] = 200 units weekly, history of raloxifene hydrochloride
[20] = 200 units weekly, patients taking glucocorticoid

teriparatide acetate
Hypercalcemia during the administration period [1]: did not cause hypercalcemia at either dose
Change in lumbar vertebral density (%), median ([2]; mild impairment (≧50-<80)): 6.6%
Change in lumbar vertebral density (%), median ([2]; normal (≧80)): 8.0%
Change in lumbar vertebral density (%), mean ([2]; normal (≧80), final): 7.5%
Average percentage change in the urinary calcium value [3]: 3.2%
Median percentage change in the urinary calcium value [3]: −14.7%
Occurrence of new vertebral fractures after 48 weeks ([4]; 200 units weekly, 48 to 72 weeks): no new vertebral fractures occurred after 48 weeks
New vertebral fractures: Incidence (%) [4, 6]: 0.0%
New vertebral fractures: No. of subjects [4, 6]: 0
New vertebral fractures: Incidence (%) [4, 7]: 0.0%
New vertebral fractures: No. of subjects [4, 7]: 0
New vertebral fractures: Incidence (%) [4, 8]: 97.3%
New vertebral fractures: No. of subjects [4, 8]: 254
New vertebral fractures: Incidence (%) [4, 9]: 1.9%
New vertebral fractures: No. of subjects [4, 9]: 5
New vertebral fractures: Incidence (%) [4, 10]: 0.0%
New vertebral fractures: No. of subjects [4, 10]: 0
New vertebral fractures: Incidence (%) [4, 11]: 0.8%
New vertebral fractures: No. of subjects [4, 11]: 2
Lowering of the risk of vertebral fractures (new+worsening) in comparison to the placebo ([4]; 200 units weekly, after 72 weeks): 78.6%
Incidence of vertebral fractures (new+worsening) by Kaplan-Meier estimation ([4]; 200 units weekly, after 72 weeks, FAS): 3.5%
Incidence of multiple vertebral fractures (two or more new vertebral fractures) [4, 12]: 0.8%
Multiple vertebral fractures, number of cases [4, 12]: 2 cases
New vertebral fractures: No. with fractures ([4]; 200 units weekly, complication (diabetes): no): 7
Incidence of new vertebrae fractures (%) ([4]; 200 units weekly, complication (diabetes): no, after 24 W): 2.8%
Incidence of new vertebrae fractures (%) ([4]; 200 units weekly, complication (diabetes): no, after 48 W): 3.3%
Incidence of new vertebrae fractures (%) ([4]; 200 units weekly, complication (diabetes): no, after 72 W): 3.3%
New vertebral fractures: No. with fractures ([4]; 200 units weekly, complication (diabetes): yes): 0
Incidence of new vertebrae fractures (%) ([4]; 200 units weekly, complication (diabetes): yes, after 24 W): 0.0%
Incidence of new vertebrae fractures (%) ([4]; 200 units weekly, complication (diabetes): yes, after 48 W): 0.0%
Incidence of new vertebrae fractures (%) ([4]; 200 units weekly, complication (diabetes): yes, after 72 W): 0.0%
New vertebral fractures: No. with fractures ([4]; 200 units weekly, complication (hyperlipidemia): no): 4
Incidence of new vertebrae fractures (%) ([4]; 200 units weekly, complication (hyperlipidemia): no, after 24 W): 2.2%
Incidence of new vertebrae fractures (%) ([4]; 200 units weekly, complication (hyperlipidemia): no, after 48 W): 3.0%
Incidence of new vertebrae fractures (%) ([4]; 200 units weekly, complication (hyperlipidemia): no, after 72 W): 3.0%
New vertebral fractures: No. with fractures ([4]; 200 units weekly, complication (hyperlipidemia): yes): 3
Incidence of new vertebrae fractures (%) ([4]; 200 units weekly, complication (hyperlipidemia): yes, after 24 W): 3.2%
Incidence of new vertebrae fractures (%) ([4]; 200 units weekly, complication (hyperlipidemia): yes, after 48 W): 3.2%
Incidence of new vertebrae fractures (%) ([4]; 200 units weekly, complication (hyperlipidemia): yes, after 72 W): 3.2%
New vertebral fractures: No. with fractures ([4]; 200 units weekly, complication (hypertension): no): 3
Incidence of new vertebrae fractures (%) ([4]; 200 units weekly, complication (hypertension): no, after 24 W): 2.1%
Incidence of new vertebrae fractures (%) ([4]; 200 units weekly, complication (hypertension): no, after 48 W): 3.1%
Incidence of new vertebrae fractures (%) ([4]; 200 units weekly, complication (hypertension): no, after 72 W): 3.1%
New vertebral fractures: No. with fractures ([4]; 200 units weekly, complication (hypertension): yes): 4
Incidence of new vertebrae fractures (%) ([4]; 200 units weekly, complication (hypertension): yes, after 24 W): 3.1%
Incidence of new vertebrae fractures (%) ([4]; 200 units weekly, complication (hypertension): yes, after 48 W): 3.1%
Incidence of new vertebrae fractures (%) ([4]; 200 units weekly, complication (hypertension): yes, after 72 W): 3.1%
Incidence of new vertebral fractures (%) ([4]; 200 units weekly, creatinine clearance abnormal (<80), after 24 W): 2.8%
Incidence of new vertebral fractures (%) ([4]; 200 units weekly, creatinine clearance abnormal (<80), after 48 W): 3.4%
Incidence of new vertebral fractures (%) ([4]; 200 units weekly, creatinine clearance abnormal (<80), after 72 W): 3.4%
New vertebral fractures: No. with fractures ([4]; 200 units weekly, creatinine clearance at start abnormal (<80)): 6
New vertebral fractures: No. with fractures ([4]; 200 units weekly, creatinine clearance at start normal (≧80)): 0
Incidence of new vertebral fractures (%) ([4]; 200 units weekly, creatinine clearance normal (≧80), after 24 W): 0.0%
Incidence of new vertebral fractures (%) ([4]; 200 units weekly, creatinine clearance normal (≧80), after 48 W): 0.0%
Incidence of new vertebral fractures (%) ([4]; 200 units weekly, creatinine clearance normal (≧80), after 72 W): 0.0%
New vertebral fractures: no (patients) [4, 13]: 62
New vertebral fractures: yes (patients) [4, 13]: 1
New vertebral fractures: no (patients) [4, 14]: 7
New vertebral fractures: yes (patients) [4, 14]: 1
New vertebral fractures: no (patients) [4, 15]: 28
New vertebral fractures: yes (patients) [4, 15]: 1
New vertebral fractures: no (patients) [4, 16]: 8
New vertebral fractures: yes (patients) [4, 16]: 0
New vertebral fractures: no (patients) [4, 17]: 35
New vertebral fractures: yes (patients) [4, 17]: 2
New vertebral fractures: no (patients) [4, 18]: 6
New vertebral fractures: yes (patients) [4, 18]: 0
New vertebral fractures: no (patients) [4, 19]: 20
New vertebral fractures: yes (patients) [4, 19]: 0
Existence of new vertebral fractures, Fracture: no (patients) [4, 20]: 29
Existence of new vertebral fractures, Fracture: yes (patients) [4, 20]: 0
New vertebral fractures: No. with fractures ([4]; 200 units weekly, prior osteoporosis treatment (no)): 4
Incidence of new vertebral fractures (%) ([4]; 200 units weekly, prior osteoporosis treatment (no), after 24 W): 2.4%
Incidence of new vertebral fractures (%) ([4]; 200 units weekly, prior osteoporosis treatment (no), after 48 W): 3.2%
Incidence of new vertebral fractures (%) ([4]; 200 units weekly, prior osteoporosis treatment (no), after 72 W): 3.2%
New vertebral fractures: No. with fractures ([4]; 200 units weekly, prior osteoporosis treatment (yes)): 3
Incidence of new vertebral fractures (%) ([4]; 200 units weekly, prior osteoporosis treatment (yes), after 24 W): 2.9%
Incidence of new vertebral fractures (%) ([4]; 200 units weekly, prior osteoporosis treatment (yes), after 48 W): 2.9%
Incidence of new vertebral fractures (%) ([4]; 200 units weekly, prior osteoporosis treatment (yes), after 72 W): 2.9%
New vertebral fractures, No. with fractures ([4]; FAS, 72 weeks): 7
New vertebral fractures, No. with fractures ([4]; time after administration >24 W-≦48 W): 2
New vertebral fractures, No. with fractures ([4]; time after administration >48 W-≦72 W): 0
New vertebral fractures, No. with fractures ([4]; time after administration ≦24 W): 6
Difference between test drug group and control group after 72 W (%), incidence of worsening fractures [5]: 1.8%
Worsening fractures: No. with fractures [5]: 1
Incidence of worsening fractures (%) ([5]; after 24 W): 0.4%
Incidence of worsening fractures (%) ([5]; after 48 W): 0.4%
Incidence of worsening fractures (%) ([5]; after 72 W): 0.4%
